Measured values published in patent US20020058701A1 (priority 2000, published 2002).

Assays:
[1] = system: C57BL/ks diabetic (db/db) mice; assay: Glucose-lowering (plasma glucose) in diabetic db/db mice; assay type: in vivo; conditions: for mean glucose levels declined from the baseline value / mean glucose levels declined from the baseline values / mean glucose levels declined from baseline values: value = size of decline; for Change in Glucose (mg/dL) 3 h: 3 h after initial dose, vehicle −8.0; for Change in Glucose (mg/dL) 3 h / Change in Glucose (mg/dL) 6 h: Table 1; for Change in Glucose (mg/dL) 6 h / Change in Glucose (mg/dL) 6 H: 6 h after initial dose; for Change in Glucose (mg/dL) 6 h: vehicle 64.5; for Change in Glucose (mg/dL) 8 h: 8 h after initial dose, vehicle 79.5; for Change in Glucose (mg/dL) 24 h: 24 h after initial dose, vehicle 18.6; for Change in Glucose (mg/dL) 54 H: 54 h after initial dose; for reduction in plasma glucose relative to vehicle (control) (in words): oral
Protocol: (§1) Genetically altered obese diabetic mice (designated C57BL/ks diabetic or db/db) were purchased from the Jackson Laboratory (Bar Harbor, Me., USA), and served as experimental animals. Male animals between the ages of 8-9 weeks were employed in the studies described here. Animals were housed (4 mice/cage) under standard laboratory conditions at 22° C. and 50% relative humidity, and were maintained on a diet of Purina rodent chow and water ad libitum. Prior to treatment, blood was collected from the tail vein of each animal. Mice that had plasma glucose levels between 350 and 600 mg/dL were used. Each treatment group consisted of eight mice that were distributed so that the mean glucose levels were equivalent in each group at the start of the study. Db/db mice received, orally by gavage: the experimental compound administered at 62.5, 125, or 250 mg/kg/day (unless otherwise noted), or metformin administered at […] for 1-3 days. Test compounds were delivered in a liquid vehicle containing 0.25% (w/v) carboxymethyl-cellulose, 1% (v/v) Tween […] (polyoxyethylene sorbitan monosterate), and up to 10% (v/v) dimethyl sulfoxide (DMSO) in a volume of 10 ml/kg. Blood was sampled from the tail vein at three hours, six, eight, twenty-four, and thirty hours post-administration (the first administration) of the particular compound in non-fasted conditions. Experiments 3-5 also sampled blood at fifty-four hours post-administration (the first administration) of the particular compound in non-fasted conditions. Blood samples were analyzed for plasma glucose levels. Individual body weights and mean food consumption (each cage) were also measured daily.
The isolated test substances were prepared as described previously (vide supra). Metformin (1,1-dimethylbiguanide), carboxymethyl cellulose and Tween 60 were purchased from Sigma Chemical Co. (St. Louis, Mo., USA; catalog #'s D-5035, C-4888, and p-1629, respectively). Plasma glucose levels were determined colorimetrically using glucose oxidase (Sigma Chemical Co.; Sigma catalog #315). Significant differences between groups (comparing compound-treated to vehicle-treated) were evaluated using analysis of variance and Fisher's post-hoc test.
Vehicle, metformin (250 mg/kg) or enriched extract (1000 mg/kg) were given to db/db mice at 0(initial), 8, 24, 32, 48, 56, 72, 80, and 96 hours post initial dose.
Plasma glucose levels were measured at baseline, 3 (day 1), 51 hours (Day 3), and 99 hours (Day 5).

[2] = Body weights and food consumption in diabetic db/db mice; assay type: in vivo; conditions: for Food Intake (g/mouse) 0-24 h: vehicle 6.8; for Body weight (g/mouse) (mean) 24 hr: vehicle 37.8 ± 0.8
Protocol: as §1

[3] = 250 mg/kg oral, dosed at 0, 8 and 24 h
[4] = 250 mg/kg oral, dosed at 0, 8 and 24 h, Table 2
[5] = 250 mg/kg, vehicle 38.0 ± 0.8, Table 3
[6] = 125 mg/kg q.d. oral at 0, 24, 48 h, vehicle 20.0, Table 10
[7] = 125 mg/kg q.d. oral at 0, 24, 48 h, 30 h after initial dose, vehicle 0.1, Table 10
[8] = 125 mg/kg q.d. oral at 0, 24, 48 h, vehicle −20.2, Table 10
[9] = Table 10, 125 mg/kg, fifty-four hours after initial dosing
[10] = Table 10, 125 mg/kg, six hours after initial dosing
[11] = Table 10, 125 mg/kg, thirty hours after initial dosing
[12] = dose level of 125 mg/kg, Tables 8 and 10
[13] = 125 mg/kg, vehicle 6.1, Table 11
[14] = 125 mg/kg, vehicle 39.4 ± 0.4, Table 11
[15] = 125 mg/kg, vehicle 40.1 ± 0.4, Table 11

Compound: 3-hydroxy-4-(3-methyl-2-butenyl)-5-methoxystilbene-2-carboxylic acid [Compound C]
- mean glucose levels declined from the baseline value ([1]; Tables 4 and 6, 125 mg/kg, fifty-four hours after initial dosing): 60.4 mg/dL
- mean glucose levels declined from the baseline values ([1]; Tables 4 and 6, 250 mg/kg, fifty-four hours after initial dosing): 122.0 mg/dL

Compound: COc1cc(O)cc(/C=C/c2ccccc2)c1 [Compound B, 3-hydroxy-5-methoxystilbene]
- Change in Glucose (mg/dL) 3 h [1, 3]: -35.3 mg/dL
- Change in Glucose (mg/dL) 6 h [1, 3]: +29.3 mg/dL
- Change in Glucose (mg/dL) 8 h [1, 4]: +52.2 mg/dL
- Change in Glucose (mg/dL) 24 h [1, 4]: -50.6 mg/dL
- Change in Glucose (mg/dL) 30 h ([1]; 250 mg/kg oral, dosed at 0, 8 and 24 h, 30 h after initial dose, Table 2): +36.5 mg/dL
- Food Intake (g/mouse) 0-24 h ([2]; 250 mg/kg, Table 3): 5.9 g/mouse
- Body weight (g/mouse) (mean) 0 h [2, 5]: 37.8 ± 0.4 g/mouse
- Body weight (g/mouse) (mean) 24 hr ([2]; 250 mg/kg, Table 3): 37.8 ± 0.4 g/mouse

Compound: COc1cc(/C=C/c2ccccc2)c(C(=O)O)c(O)c1CC=C(C)C [Compound C, 3-hydroxy-4-(3-methyl-2-butenyl)-5-methoxystilbene-2-carboxylic acid]
- Change in Glucose (mg/dL) 6 H ([1]; 62.5 mg/kg q.d. oral at 0, 24, 48 h, vehicle 35.9, Tables 4 and 6 (dose of row)): -18.6 mg/dL
- Change in Glucose (mg/dL) 30 H ([1]; 62.5 mg/kg q.d. oral at 0, 24, 48 h, 30 h after initial dose, vehicle 79.6, Tables 4 and 6): -40.7 mg/dL
- Change in Glucose (mg/dL) 54 H ([1]; 62.5 mg/kg q.d. oral at 0, 24, 48 h, vehicle 60.3, Tables 4 and 6): 65.4 mg/dL
- Change in Glucose (mg/dL) 6 H ([1]; 125 mg/kg q.d. oral at 0, 24, 48 h, vehicle 35.9, Tables 4 and 6 (dose of row)): -34.3 mg/dL
- Change in Glucose (mg/dL) 30 H ([1]; 125 mg/kg q.d. oral at 0, 24, 48 h, 30 h after initial dose, vehicle 79.6, Tables 4 and 6): -69.7 mg/dL
- Change in Glucose (mg/dL) 54 H ([1]; 125 mg/kg q.d. oral at 0, 24, 48 h, vehicle 60.3, Tables 4 and 6): -60.4 mg/dL
- Change in Glucose (mg/dL) 3 h [1, 3]: -10.4 mg/dL
- Change in Glucose (mg/dL) 6 h [1, 3]: -8.4 mg/dL
- Change in Glucose (mg/dL) 8 h [1, 4]: +4.5 mg/dL
- Change in Glucose (mg/dL) 24 h [1, 4]: -122.8 mg/dL
- Change in Glucose (mg/dL) 6 H ([1]; 250 mg/kg q.d. oral at 0, 24, 48 h, vehicle 35.9, Tables 4 and 6): -120.8 mg/dL
- Change in Glucose (mg/dL) 30 H ([1]; 250 mg/kg q.d. oral at 0, 24, 48 h, 30 h after initial dose, vehicle 79.6, Tables 4 and 6): -221.4 mg/dL
- Change in Glucose (mg/dL) 54 H ([1]; 250 mg/kg q.d. oral at 0, 24, 48 h, vehicle 60.3, Tables 4 and 6): -122.0 mg/dL
- mean glucose levels declined from the baseline value ([1]; Table 8, 125 mg/kg, thirty hours after initial dosing): 12.2 mg/dL
- mean glucose levels rose from the baseline values ([1]; Tables 1-2, 250 mg/kg, eight hours after initial dosing, value = size of rise): 4.5 mg/dL
- mean glucose levels declined from the baseline value ([1]; Tables 1-2, 250 mg/kg, six hours after initial dosing): 8.4 mg/dL
- mean glucose levels rose from the baseline value ([1]; Tables 1-2, 250 mg/kg, thirty hours after dosing, value = size of rise): 36.5 mg/dL
- mean glucose levels declined from the baseline values ([1]; Tables 1-2, 250 mg/kg, twenty-four hours after initial dosing): 122.8 mg/dL
- mean glucose levels declined from the baseline value ([1]; Tables 4 and 6, 125 mg/kg, six hours after initial dosing): 34.3 mg/dL
- reduction in plasma glucose relative to vehicle (control) (in words) ([1]; dose level of 250 mg/kg, Tables 1 and 2): statistically significant reduction
- reduction in plasma glucose relative to vehicle (control) (in words) ([1]; dose levels of 62.5, 125, and 250 mg/kg, Tables 4 and 6): statistically significant reduction
- adverse effect on food intake or body weight (in words) ([2]; 62.5 mg/kg, 125 mg/kg, and 250 mg/kg, Tables 5 and 7): absence of any significantly adverse effect
- Food Intake (g/mouse) 0-48 h ([2]; 62.5 mg/kg, vehicle 6.3, Tables 5 and 7): 5.9 g/mouse
- Body weight (g/mouse) (mean) 0 h ([2]; 62.5 mg/kg, vehicle 39.2 ± 0.5, Tables 5 and 7): 37.4 ± 0.4 g/mouse
- Body weight (g/mouse) (mean) 48 hr ([2]; 62.5 mg/kg, vehicle 39.5 ± 0.5, Tables 5 and 7): 38.2 ± 0.5 g/mouse
- Food Intake (g/mouse) 0-48 h ([2]; 125 mg/kg, vehicle 6.3, Tables 5 and 7): 5.6 g/mouse
- Body weight (g/mouse) (mean) 0 h ([2]; 125 mg/kg, vehicle 39.2 ± 0.5, Tables 5 and 7): 39.4 ± 0.4 g/mouse
- Body weight (g/mouse) (mean) 48 hr ([2]; 125 mg/kg, vehicle 39.5 ± 0.5, Tables 5 and 7): 39.7 ± 0.3 g/mouse
- food intake compared with the normal food intake range (5-6 g/day/mouse) (in words) ([2]; 250 mg/kg): less than that of the normal food intake range
- Food Intake (g/mouse) 0-24 h ([2]; 250 mg/kg, Table 3): 3.3 g/mouse
- Food Intake (g/mouse) 0-48 h ([2]; 250 mg/kg, vehicle 6.3, Tables 5 and 7): 4.3 g/mouse
- Body weight (g/mouse) (mean) 0 h [2, 5]: 38.7 ± 0.8 g/mouse
- Body weight (g/mouse) (mean) 0 h ([2]; 250 mg/kg, vehicle 39.2 ± 0.5, Tables 5 and 7): 39.1 ± 0.8 g/mouse
- Body weight (g/mouse) (mean) 24 hr ([2]; 250 mg/kg, Table 3): 38.0 ± 0.7 g/mouse
- Body weight (g/mouse) (mean) 48 hr ([2]; 250 mg/kg, vehicle 39.5 ± 0.5, Tables 5 and 7): 38.4 ± 0.1 g/mouse
- adverse effect on food intake or body weight (in words) ([2]; 250 mg/kg, Table 3): absence of any significantly adverse effect

Compound: COc1cc(/C=C/c2ccccc2)cc(O)c1CC=C(C)C [Compound D, 3-hydroxy-5-methoxy-4-(3-methyl-2-butenyl)stilbene]
- Food Intake (g/mouse) 0-48 h [2, 13]: 5.7 g/mouse
- Body weight (g/mouse) (mean) 0 h [2, 14]: 39.3 ± 0.6 g/mouse
- Body weight (g/mouse) (mean) 48 hr [2, 15]: 39.7 ± 0.7 g/mouse

Compound: COc1cc(O)cc(CCc2ccccc2)c1CC=C(C)C [Compound E]
- Change in Glucose (mg/dL) 6 H ([1]; 125 mg/kg q.d. oral at 0, 24, 48 h, vehicle 15.5, Table 8): -2.1 mg/dL
- Change in Glucose (mg/dL) 6 H [1, 6]: -53.8 mg/dL
- Change in Glucose (mg/dL) 30 H [1, 7]: -109.9 mg/dL
- Change in Glucose (mg/dL) 30 H ([1]; 125 mg/kg q.d. oral at 0, 24, 48 h, 30 h after initial dose, vehicle 56.6, Table 8): -47.0 mg/dL
- Change in Glucose (mg/dL) 54 H ([1]; 125 mg/kg q.d. oral at 0, 24, 48 h, vehicle 88.6, Table 8): -54.7 mg/dL
- Change in Glucose (mg/dL) 54 H [1, 8]: -86.6 mg/dL
- mean glucose levels declined from baseline values ([1]; Table 8, 125 mg/kg, fifty-four hours after initial dosing): 54.7 mg/dL
- mean glucose levels declined from the baseline value ([1]; Table 8, printed dose 250 mg/kg, thirty hours after initial dosing): 47.0 mg/dL
- mean glucose levels declined from baseline values [1, 9]: 86.6 mg/dL
- mean glucose levels declined from the baseline value [1, 10]: 53.8 mg/dL
- mean glucose levels declined from the baseline value [1, 11]: 109.9 mg/dL
- reduction in plasma glucose relative to vehicle (control) (in words) [1, 12]: statistically significant reduction
- Food Intake (g/mouse) 0-48 h ([2]; 125 mg/kg, vehicle 6.0, Table 9): 5.7 g/mouse
- Food Intake (g/mouse) 0-48 h [2, 13]: 5.7 g/mouse
- Body weight (g/mouse) (mean) 0 h [2, 14]: 39.6 ± 0.3 g/mouse
- Body weight (g/mouse) (mean) 0 h ([2]; 125 mg/kg, vehicle 39.8 ± 0.7, Table 9): 39.5 ± 0.5 g/mouse
- Body weight (g/mouse) (mean) 48 hr ([2]; 125 mg/kg, vehicle 39.7 ± 0.6, Table 9): 39.7 ± 0.6 g/mouse
- Body weight (g/mouse) (mean) 48 hr [2, 15]: 40.2 ± 0.4 g/mouse
- adverse effect on food intake or body weight (in words) ([2]; 125 mg/kg, Tables 9 and 11): absence of any significantly adverse effect

Compound: COc1cc(O)cc(CCc2ccccc2)c1CCC(C)C [Compound F]
- Food Intake (g/mouse) 0-48 h [2, 13]: 5.8 g/mouse
- Body weight (g/mouse) (mean) 0 h [2, 14]: 39.3 ± 0.8 g/mouse
- Body weight (g/mouse) (mean) 48 hr [2, 15]: 39.8 ± 0.8 g/mouse
